Data taken from ChEMBL document CHEMBL1201862, “PubChem BioAssay data set” (2004).
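Compound exposure: 48 hours, 5 concentrations, 96-well plates. Here, GI50 denotes the concentration required for 50% inhibition of growth.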 Active and inactive are the calls of the source. Cut-off read from the data, not from the text of the source: active = GI50 up to about 1.1 µM and inactive = higher.

Columns and labels:
Test in all cases: growth of human tumour cells (NCI), 48 h
NCI-H522 = system: NCI-H522
NCI-H23 = system: NCI-H23
TK-10 = system: TK-10
T47D = system: T47D
SNB-19 = system: SNB-19
HCT-15 = system: HCT-15
Hs-578T = system: Hs-578T
SNB-75 = system: SNB-75
A498 = system: A498
M14 = system: M14
NCI-H226 = system: NCI-H226
OVCAR-8 = system: OVCAR-8
HCC 2998 = system: HCC 2998
SN12C = system: SN12C
HT-29 = system: HT-29
SF-295 = system: SF-295
LOX IMVI = system: LOX IMVI
786-0 = system: 786-0
UACC-257 = system: UACC-257
BT-549 = system: BT-549

Row | SMILES | GI50 (NCI-H522) | GI50 (NCI-H23) | GI50 (TK-10) | GI50 (T47D) | GI50 (SNB-19) | GI50 (HCT-15) | GI50 (Hs-578T) | GI50 (SNB-75) | GI50 (A498) | GI50 (M14) | GI50 (NCI-H226) | GI50 (OVCAR-8) | GI50 (HCC 2998) | GI50 (SN12C) | GI50 (HT-29) | GI50 (SF-295) | GI50 (LOX IMVI) | GI50 (786-0) | GI50 (UACC-257) | GI50 (BT-549)
1 | O=C1OCC2=C1C(c1ccc3c(c1)OCO3)c1cc3c(cc1O2)OCO3 (stereo not given) | 0.262 µM (active) | 1.29 µM (inactive) | 5.81 µM (inactive) | 0.7 µM (active) | 2.1 µM (inactive) | 0.346 µM | 0.865 µM (active) | 0.5 µM (active) | 1.98 µM (inactive) | 0.369 µM (active) | 5.14 µM (inactive) | 1.11 µM (active) | 4.42 µM (inactive) | 1.3 µM (inactive) | 0.346 µM (active) | 3.03 µM (inactive) | 0.507 µM (active) | 0.785 µM (active) | 5.13 µM (inactive) | –
2 | CCOC1=NC(O)c2cccn2-c2sccc21 (stereo not given) | > 100 µM (inactive) | > 100 µM (inactive) | 82.4 µM (inactive) | > 100 µM (inactive) | > 100 µM (inactive) | > 100 µM | – | – | 56.8 µM (inactive) | > 100 µM (inactive) | – | > 100 µM (inactive) | > 100 µM (inactive) | > 100 µM (inactive) | > 100 µM (inactive) | > 100 µM (inactive) | – | > 100 µM (inactive) | – | –
3 | CCOC(=O)C1=c2[nH]c3cccc4cccc(c43)n2C=C(C(C)=O)C1CC(C)=O (stereo not given) | – | 69.7 µM (inactive) | > 100 µM (inactive) | 34 µM (inactive) | 55.2 µM (inactive) | 44 µM | – | > 100 µM (inactive) | 86.1 µM (inactive) | > 100 µM (inactive) | – | 46.2 µM (inactive) | 62.7 µM (inactive) | > 100 µM (inactive) | – | > 100 µM (inactive) | 43.2 µM (inactive) | 40.4 µM (inactive) | > 100 µM (inactive) | > 100 µM (inactive)
4 | COC(=O)C(CCCC1(c2ccccc2)OCCO1)C(C)=O (stereo not given) | 64 µM (inactive) | > 100 µM (inactive) | > 100 µM (inactive) | – | > 100 µM (inactive) | > 100 µM | – | 30.2 µM (inactive) | > 100 µM (inactive) | > 100 µM (inactive) | 40.9 µM (inactive) | > 100 µM (inactive) | > 100 µM (inactive) | > 100 µM (inactive) | > 100 µM (inactive) | > 100 µM (inactive) | > 100 µM (inactive) | > 100 µM (inactive) | 90.2 µM (inactive) | –
5 | C/C(=C/CNc1ncnc2c1ncn2CCC(=O)O)CO | > 100 µM (inactive) | > 100 µM (inactive) | > 100 µM (inactive) | > 100 µM (inactive) | > 100 µM (inactive) | – | > 100 µM (inactive) | > 100 µM (inactive) | > 100 µM (inactive) | > 100 µM (inactive) | > 100 µM (inactive) | > 100 µM (inactive) | > 100 µM (inactive) | > 100 µM (inactive) | > 100 µM (inactive) | > 100 µM (inactive) | > 100 µM (inactive) | > 100 µM (inactive) | > 100 µM (inactive) | –
6 | COc1ccc(C(=O)/C=C/c2ccc(OCCCCCCCCCCOc3ccc(/C=C/C(=O)c4ccc(OC)c(OC)c4)cc3)cc2)c(OC)c1 | – | – | > 100 µM (inactive) | > 100 µM (inactive) | > 100 µM (inactive) | > 100 µM | 76 µM (inactive) | > 100 µM (inactive) | – | > 100 µM (inactive) | > 100 µM (inactive) | > 100 µM (inactive) | > 100 µM (inactive) | > 100 µM (inactive) | > 100 µM (inactive) | > 100 µM (inactive) | – | > 100 µM (inactive) | > 100 µM (inactive) | –
7 | COc1ccc(/C=C/C(=O)c2c(-c3ccccc3)nn(C)c(=O)c2N2CC2C)cc1 (stereo not given) | 22.7 µM (inactive) | 19 µM (inactive) | 41.1 µM (inactive) | – | 37.8 µM (inactive) | 24.3 µM | – | 24.8 µM (inactive) | 23.9 µM (inactive) | 28.8 µM (inactive) | 45.3 µM (inactive) | 32.4 µM (inactive) | 26.6 µM (inactive) | 37 µM (inactive) | 32.4 µM (inactive) | 33.8 µM (inactive) | 16.3 µM (inactive) | 36.4 µM (inactive) | 42.2 µM (inactive) | –
8 | CC1=C(C(=O)Nc2ccccc2)C(c2ccc([N+](=O)[O-])cc2)C(C(=O)Nc2ccccc2)=C(C)N1 | 18.3 µM (inactive) | 17 µM (inactive) | 28.7 µM (inactive) | – | 10.4 µM (inactive) | 17.6 µM | – | 26.6 µM (inactive) | 26.2 µM (inactive) | 18.1 µM (inactive) | 59.6 µM (inactive) | 17.3 µM (inactive) | 20.2 µM (inactive) | 30.5 µM (inactive) | 18.2 µM (inactive) | 22.4 µM (inactive) | 15.2 µM (inactive) | 19.8 µM (inactive) | 18.5 µM (inactive) | –
9 | Cc1cc2c(cc1C)[n+]([O-])c(-c1c(Cl)cccc1Cl)c(N)[n+]2[O-] | 9.27 µM (inactive) | 24.1 µM (inactive) | > 100 µM (inactive) | – | 25.5 µM (inactive) | 28.4 µM | – | > 100 µM (inactive) | 26.2 µM (inactive) | 33 µM (inactive) | 23.9 µM (inactive) | 38.8 µM (inactive) | 25.8 µM (inactive) | 50.9 µM (inactive) | 39.6 µM (inactive) | 42.5 µM (inactive) | 44.7 µM (inactive) | 52 µM (inactive) | 24.6 µM (inactive) | –
10 | CS/C(=N\C(=S)Nc1ccccc1)Nc1ccccc1 | 14.6 µM (inactive) | 29.4 µM (inactive) | 14.2 µM (inactive) | – | 21.7 µM (inactive) | 17.9 µM | – | 16.3 µM (inactive) | 21.9 µM (inactive) | 21.4 µM (inactive) | 18.5 µM (inactive) | 25.4 µM (inactive) | 21.7 µM (inactive) | 18.3 µM (inactive) | 6.37 µM (inactive) | 21.5 µM (inactive) | 16.7 µM (inactive) | > 10 µM (inactive) | > 10 µM (inactive) | –
11 | CCN(CC)CC(C(=O)Nc1c(C)cccc1C)/C(C)=N/NC(N)=S (stereo not given) | > 100 µM (inactive) | > 100 µM (inactive) | > 100 µM (inactive) | – | – | – | – | > 100 µM (inactive) | > 100 µM (inactive) | > 100 µM (inactive) | > 100 µM (inactive) | > 100 µM (inactive) | > 100 µM (inactive) | – | > 100 µM (inactive) | > 100 µM (inactive) | > 100 µM (inactive) | > 100 µM (inactive) | > 100 µM (inactive) | –
12 | O=C1Oc2cc3c(c4cccc1c24)O[C@H](c1ccccc1)[C@@H](c1ccccc1)[C@@H]3c1ccc(Cl)cc1 | 38 µM (inactive) | 34 µM (inactive) | 39.3 µM (inactive) | 58.6 µM (inactive) | 29.4 µM (inactive) | > 100 µM | 88.7 µM (inactive) | – | – | 40.1 µM (inactive) | 76 µM (inactive) | 16.2 µM (inactive) | > 100 µM (inactive) | 79.4 µM (inactive) | > 100 µM (inactive) | 42.7 µM (inactive) | 68.4 µM (inactive) | 17.6 µM (inactive) | > 100 µM (inactive) | –
13 | CCCCCCCC(=O)NCC(O)CNC(=O)CCCCCCC | > 100 µM (inactive) | > 100 µM (inactive) | > 100 µM (inactive) | – | > 100 µM (inactive) | > 100 µM | – | > 100 µM (inactive) | > 100 µM (inactive) | > 100 µM (inactive) | > 100 µM (inactive) | > 100 µM (inactive) | > 100 µM (inactive) | > 100 µM (inactive) | > 100 µM (inactive) | > 100 µM (inactive) | > 100 µM (inactive) | > 100 µM (inactive) | > 100 µM (inactive) | –
14 | CCOC(=O)c1sc2c(c1OC(=O)c1cccs1)c(=O)n(-c1ccccc1)c(=S)n2-c1ccccc1 | 4.69 µM (inactive) | 15.8 µM (inactive) | 25 µM (inactive) | 23.5 µM (inactive) | 28.6 µM (inactive) | 14 µM | 23.7 µM (inactive) | 83.6 µM (inactive) | 6.4 µM (inactive) | 12.4 µM (inactive) | 20.5 µM (inactive) | 18.2 µM (inactive) | 16.6 µM (inactive) | 18.3 µM (inactive) | 3.9 µM (inactive) | 53.2 µM (inactive) | 15.7 µM (inactive) | 10.6 µM (inactive) | 27.4 µM (inactive) | –
15 | COc1ccc(NS(=O)(=O)c2ccc(/N=C3\C=C(Nc4ccc(S(=O)(=O)Nc5ccc(OC)nn5)cc4)C(=O)c4ccccc43)cc2)nn1 | 17 µM (inactive) | 16.2 µM (inactive) | 21.9 µM (inactive) | – | 18.8 µM (inactive) | 17 µM | – | 19.8 µM (inactive) | 15.3 µM (inactive) | 17.5 µM (inactive) | 19.3 µM (inactive) | 17.2 µM (inactive) | 19.6 µM (inactive) | 18.1 µM (inactive) | 20.5 µM (inactive) | 17.1 µM (inactive) | 16.7 µM (inactive) | 17.8 µM (inactive) | 16.9 µM (inactive) | –
16 | Cc1ccc2c(O)cc(-c3ccc(Cl)s3)nc2n1 | 0.502 µM (active) | 0.889 µM (active) | 8.87 µM (inactive) | 1.04 µM (active) | 1.43 µM (inactive) | 0.405 µM | 1.62 µM (inactive) | 1.4 µM (inactive) | 4.7 µM (inactive) | 0.516 µM (active) | 0.916 µM (active) | 1.44 µM (inactive) | 1.34 µM (inactive) | 1.55 µM (inactive) | 1.39 µM (inactive) | 0.697 µM (active) | 0.662 µM (active) | 1.21 µM (inactive) | 5.68 µM (inactive) | –
